The target in the assay is human σ1 receptor and human μ-opioid receptor. In words: Human σ1 receptor radioligand assay and human μ-opioid receptor radioligand assay (μ and σ1 dual binding). Also noted: key to μ and σ1 dual binding: +: Both Ki-μ and Ki-σ1>=500 nM; ++: One Ki<500 nM while the other Ki is >=500 nM; +++: Both Ki-μ and Ki-σ1<500 nM; ++++: Both Ki-μ and Ki-σ1<100 nM.
The mark [1] stands for this setting: combined class for Ki-μ ([3H]-DAMGO, CHO-K1 membranes) and Ki-σ1 ([3H](+)-pentazocine, HEK-293 membranes).

Like-named read-outs stand apart in the source and are kept apart here.

In turn, `CN1CCc2ccccc2C12CCN(C[C@H](O)c1ccncc1F)CC2` [Example 142, (R)-1-(3-fluoropyridin-4-yl)-2-(2-methyl-3,4-dihydro-2H-spiro[isoquinoline-1,4′-piperidine]-1′-yl)ethanol] displayed a Ki of less than 0.5 µM.
Still for that read-out and setting: in the case of `CN1CCc2ccccc2C12CCN(C[C@@H](O)c1ccncc1F)CC2` [Example 143, (S)-1-(3-fluoropyridin-4-yl)-2-(2-methyl-3,4-dihydro-2H-spiro[isoquinoline-1,4′-piperidine]-1′-yl)ethanol] it was less than 0.5 µM; in that of `CCN(C(=O)CN1CCC2(CC1)c1ccccc1CCN2CC)C(C)C` [Example 144, N-ethyl-2-(2-ethyl-3,4-dihydro-2H-spiro[isoquinoline-1,4′-piperidine]-1′-yl)-N-isopropylacetamide], less than 0.5 µM.
Still for that read-out and setting: next, `CCN1CCc2ccccc2C12CCN(CC(=O)N1CCC(F)(F)CC1)CC2` [Example 145, 1-(4,4-difluoropiperidin-1-yl)-2-(2-ethyl-3,4-dihydro-2H-spiro[isoquinoline-1,4′-piperidine]-1′-yl)ethanone]: less than 0.5 µM.
Take `CCN1CCc2ccccc2C12CCN(CC(O)c1ccncc1)CC2` (centres unmarked) [Example 146, 2-(2-ethyl-3,4-dihydro-2H-spiro[isoquinoline-1,4′-piperidine]-1′-yl)-1-(pyridin-4-yl)ethanol]: the “μ and σ1 dual binding” value is given as “++”.
With `CCN1CCc2ccccc2C12CCN(CC(=O)N1CCOCC1)CC2` [Example 147, 2-(2-ethyl-3,4-dihydro-2H-spiro[isoquinoline-1,4′-piperidine]-1′-yl)-1-morpholinoethanone], the inhibition constant (Ki) was less than 0.5 µM.
As for `CCN1CCc2ccccc2C12CCN(CCN1CCOCC1)CC2` [Example 148, 4-(2-(2-ethyl-3,4-dihydro-2H-spiro[isoquinoline-1,4′-piperidine]-1′-yl)ethyl)morpholine], the “μ and σ1 dual binding” value was “++”.
On the same count and under the same terms, in the case of `CCN1CCc2ccccc2C12CCN(CC(=O)N1CCS(=O)(=O)CC1)CC2` [Example 149, 2-(2-ethyl-3,4-dihydro-2H-spiro[isoquinoline-1,4′-piperidine]-1′-yl)-1-(1,1-dioxo-thiomorpholin-4-yl)ethanone] it was “++”.
As for `CCN1CCc2ccccc2C12CCN(CC(=O)N1CCC(F)CC1)CC2` [Example 150, 2-(2-ethyl-3,4-dihydro-2H-spiro[isoquinoline-1,4′-piperidine]-1′-yl)-1-(4-fluoropiperidin-1-yl)ethanone], the Ki was less than 0.5 µM.
The same measure, in the same setting: next, `CCN1CCc2ccccc2C12CCN(CC(=O)N1CCCC(F)(F)C1)CC2` [Example 151, 1-(3,3-difluoropiperidin-1-yl)-2-(2-ethyl-3,4-dihydro-2H-spiro[isoquinoline-1,4′-piperidine]-1′-yl)ethanone]: less than 0.5 µM.
Regarding `CCC(CC)N(C)C(=O)CN1CCC2(CC1)c1ccccc1CCN2CC` [Example 152, 2-(2-ethyl-3,4-dihydro-2H-spiro[isoquinoline-1,4′-piperidine]-1′-yl)-N-methyl-N-(pentan-3-yl)acetamide], the “μ and σ1 dual binding” value is reported as “++”.
`CCN1CCc2ccccc2C12CCN(CC(=O)N(C)C)CC2` [Example 153, 2-(2-ethyl-3,4-dihydro-2H-spiro[isoquinoline-1,4′-piperidine]-1′-yl)-N,N-dimethylacetamide]: the “μ and σ1 dual binding” value was “++”.
For the compound `CCN(C(=O)CN1CCC2(CC1)c1ccccc1CCN2CC)C1CC1` [Example 154, N-cyclopropyl-N-ethyl-2-(2-ethyl-3,4-dihydro-2H-spiro[isoquinoline-1,4′-piperidine]-1′-yl)acetamide], the inhibitory constant (Ki) is less than 0.5 µM.
The same measure, in the same setting: next, `CCN(CC)C(=O)CN1CCC2(CC1)c1ccccc1CCN2CC` [Example 155, N,N-diethyl-2-(2-ethyl-3,4-dihydro-2H-spiro[isoquinoline-1,4′-piperidine]-1′-yl)acetamide]: less than 0.5 µM.
On to `CN1Cc2ccccc2C12CCN(CC(=O)N1CCC(F)(F)CC1)CC2` [Example 156, 1-(4,4-difluoropiperidin-1-yl)-2-(2-methylspiro[isoindoline-1,4′-piperidine]-1′-yl)ethanone], for which the Ki under setting [1] was not below 0.5 µM.
Still for that read-out and setting: in the case of `CCN(C(=O)CN1CCC2(CC1)c1ccccc1CN2C)C(C)C` [Example 157, N-ethyl-N-isopropyl-2-(2-methylspiro[isoindoline-1,4′-piperidine]-1′-yl)acetamide] it was not below 0.5 µM; in that of `CN1CCc2ccccc2C12CCN(CCNCCO)CC2` [Example 160, 2-(2-(2-Methyl-3,4-dihydro-2H-spiro[isoquinoline-1,4′-piperidine]-1′-yl)ethylamino)ethanol], not below 0.5 µM.
